In patent US10391095B2, “DNA-PK inhibitors” (Vertex Pharmaceuticals Incorporated, priority 2012, dated 2019) one finds Ki data, which are given here for 65 molecules.

By Ki is commonly meant a dissociation constant, usually derived from enzyme kinetics or from competition with a known ligand. Read a low Ki as higher affinity.

The assay addresses DNA-PK (Homo sapiens, UniProt P78527). The assay can be described thus: DNA-PK inhibition assay (radiometric, 33P-ATP). Type of assay: biochemical. To be noted: 100 μM ATP, competitive tight-binding fit. In outline: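 Approx. 6 nM DNA-PK with 10 µg/mL sheared dsDNA, 0.8 mg/mL peptide substrate and 100 µM 33P-ATP in HEPES pH 7.5, 10 mM MgCl2; 45 min, phosphoric acid quench. Phosphopeptide captured on filter plates and counted by scintillation; Ki from a competitive tight-binding model fit.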

`CNC(=O)c1ccnc2c([C@H](C)CNc3cc(-c4ccc(N5Cc6ccncc6C5)nc4)ncn3)cccc12` [Compound 718] showed a Ki below 30 nM.

The molecule `CNC(=O)c1ccnc2c([C@H](C)CNc3cc(-c4ccc(NCCN5CCNC5=O)nc4)ncn3)cccc12` [Compound 719] registered a Ki below 30 nM.

Molecule `CNC(=O)c1ccnc2c([C@H](C)CNc3cc(-c4ccc(N5C[C@@H]6CCN(C)[C@@H]6C5)nc4)ncn3)cccc12` [Compound 720] had a Ki below 30 nM.

The molecule `CNC(=O)c1ccnc2c([C@H](C)CNc3cc(-c4ccc(N5CCN(C(C)C)CC5)nc4)ncn3)cccc12` [Compound 722] had an inhibition constant Ki below 30 nM.

Molecule `CNC(=O)c1ccnc2c([C@H](C)CNc3cc(-c4ccc(N5CCCC5)nc4)ncn3)cccc12` [Compound 723] displayed a Ki below 30 nM.

Turning to `CCC(CO)Nc1ccc(-c2cc(NC[C@@H](C)c3cccc4c(C(=O)NC)ccnc34)ncn2)cn1` (some centres unmarked) [Compound 724], the Ki was below 30 nM.

Take `CNC(=O)c1ccnc2c([C@H](C)CNc3cc(-c4ccc(N[C@@H]5COC[C@H]5O)nc4)ncn3)cccc12` [Compound 726]: the inhibition constant Ki is below 30 nM.

Molecule `CNC(=O)c1ccnc2c([C@H](C)CNc3cc(-c4ccc(OCCN5CCCC5)cc4)ncn3)cccc12` [Compound 727] displayed an inhibition constant (Ki) below 30 nM.

Molecule `CNC(=O)c1ccnc2c([C@H](C)CNc3cc(-c4cnc(N5CCCC(O)C5)nc4)ncn3)cccc12` (some centres unmarked) [Compound 728] returned an inhibition constant (Ki) below 30 nM.

As to `CNC(=O)c1ccnc2c([C@H](C)CNc3cc(-c4cnc(N5CCC(O)CC5)nc4)ncn3)cccc12` [Compound 729], the Ki was below 30 nM.

As for `CNC(=O)c1ccnc2c([C@H](C)CNc3cc(-c4ccc(C(C)O)nc4)ncn3)cccc12` (some centres unmarked) [Compound 730], the Ki is below 30 nM.

Turning to `CNC(=O)c1ccnc2c([C@H](C)CNc3cc(-c4ccc(N5CCC(C)(O)C5)nc4)ncn3)cccc12` (some centres unmarked) [Compound 732], the Ki is below 30 nM.

Molecule `CNC(=O)c1ccnc2c([C@H](C)CNc3cc(-c4ccc(N5CCOC(C)(C)C5)nc4)ncn3)cccc12` [Compound 733] came in with a Ki below 30 nM.

As to `CNC(=O)c1ccnc2c([C@H](C)CNc3cc(-c4ccc(N5CCC(C(C)(C)O)CC5)nc4)ncn3)cccc12` [Compound 734], the inhibitory constant (Ki) is below 30 nM.

Take `CNC(=O)c1ccnc2c([C@H](C)CNc3cc(-c4ccc(N5CCC6(COC6)C5)nc4)ncn3)cccc12` [Compound 735]: the inhibition constant (Ki) is below 30 nM.

Take `CNC(=O)c1ccnc2c([C@H](C)CNc3cc(-c4ccc(N5CC(CO)C5)nc4)ncn3)cccc12` [Compound 736]: the Ki is below 30 nM.

`CNC(=O)c1ccnc2c([C@H](C)CNc3cc(-c4ccc(Nc5cnn(CCOC)c5)nc4)ncn3)cccc12` [Compound 737]: the Ki is below 30 nM.

`CNC(=O)c1ccnc2c([C@H](C)CNc3cc(-c4ccc(NCCc5ccc(C)o5)nc4)ncn3)cccc12` [Compound 738] had a Ki below 30 nM.

`CNC(=O)c1c(-n2ccc(C)n2)cnc2c([C@H](C)CNc3cc(-c4ccc(C)nc4)ncn3)cccc12` [Compound 740] showed an inhibition constant (Ki) below 30 nM.

`CNC(=O)c1ccnc2c([C@H](C)CNc3cc(N4CCn5ccnc5C4)ncn3)cccc12` [Compound 741] displayed an inhibitory constant (Ki) below 30 nM.

Take `CC(=O)Nc1cnc2c([C@H](C)CNc3cc(-c4ccc(C)nc4)ncn3)cccc2c1` [Compound 742]: the Ki is below 30 nM.

The molecule `CNC(=O)c1ccnc2c([C@H](C)CNc3cc(-n4ccnc4)ncn3)cccc12` [Compound 743] gave an inhibition constant (Ki) below 30 nM.

In turn, `CNC(=O)c1ccnc2c([C@H](C)CNc3cc(-c4cnc(OC5CCCN(C(=O)OC(C)(C)C)C5)nc4)ncn3)cccc12` (some centres unmarked) [Compound 747] returned an inhibition constant (Ki) below 30 nM.

Take `CNC(=O)c1ccnc2c([C@H](C)CNc3cc(-c4ccc(OC5COC5)cc4)ncn3)cccc12` [Compound 748]: the Ki is below 30 nM.

With `CNC(=O)c1ccnc2c([C@H](C)CNc3cc(-c4ccc(NC(C)=O)cc4)ncn3)cccc12` [Compound 749], the inhibition constant Ki was below 30 nM.

`CNC(=O)c1ccnc2c([C@H](C)CNc3cc(-c4ccc(NC(=O)OC)cc4)ncn3)cccc12` [Compound 750] registered an inhibitory constant (Ki) below 30 nM.

Consider `CNC(=O)c1ccnc2c([C@H](C)CNc3cc(-c4ccc(C(=O)NCCCN(C)C)cc4)ncn3)cccc12` [Compound 751], for which the inhibition constant (Ki) is below 30 nM.

Turning to `CNC(=O)c1ccnc2c([C@H](C)CNc3cc(-c4ccc(C(=O)NC5CC5)cc4)ncn3)cccc12` [Compound 752], the Ki was below 30 nM.

On to `CNC(=O)c1ccnc2c([C@H](C)CNc3cc(-c4ccc(C(=O)NCCO)cc4)ncn3)cccc12` [Compound 753], for which the Ki is below 30 nM.

`CNC(=O)c1ccc(-c2cc(NC[C@@H](C)c3cccc4c(C(=O)NC)ccnc34)ncn2)cc1` [Compound 754] registered a Ki below 30 nM.

In turn, `CNC(=O)c1ccnc2c([C@H](C)CNc3cc(-c4ccc(OC(C)(C)C)cc4)ncn3)cccc12` [Compound 755] displayed a Ki below 30 nM.

In turn, `CNC(=O)c1ccnc2c([C@H](C)CNc3cc(-c4ccc(N5CCN(CC(F)F)CC5)nc4)ncn3)cccc12` [Compound 756] gave a Ki below 30 nM.

The molecule `CNC(=O)c1ccnc2c([C@H](C)CNc3cc(-c4cnc(N5CCN(CC(F)F)CC5)nc4)ncn3)cccc12` [Compound 757] had an inhibition constant Ki below 30 nM.

In the case of `CNC(=O)c1ccnc2c([C@H](C)CNc3cc(-c4ccc5c(c4)CNC5=O)ncn3)cccc12` [Compound 758], the Ki was below 30 nM.

Molecule `CNC(=O)c1ccnc2c([C@H](C)CNc3cc(-c4ccc(C(N)=O)cc4)ncn3)cccc12` [Compound 759] displayed a Ki below 30 nM.

Turning to `CNC(=O)c1c(OC)cnc2c([C@H](C)CNc3cc(-c4ccc(C)nc4)ncn3)cccc12` [Compound 762], the Ki is below 30 nM.

In the case of `CNC(=O)c1c(-n2ccnc2)cnc2c([C@H](C)CNc3cc(-c4ccc(C)nc4)ncn3)cccc12` [Compound 763], the Ki was below 30 nM.

`CNC(=O)c1c(NC)cnc2c([C@H](C)CNc3cc(-c4ccc(C)nc4)ncn3)cccc12` [Compound 764] displayed a Ki below 30 nM.

`CNC(=O)c1c(N(C)C)cnc2c([C@H](C)CNc3cc(-c4ccc(C)nc4)ncn3)cccc12` [Compound 765] yielded a Ki below 30 nM.

Turning to `CNC(=O)c1c(C#N)cnc2c([C@H](C)CNc3cc(-c4ccc(C)nc4)ncn3)cccc12` [Compound 766], the Ki was below 30 nM.

On to `CNC(=O)c1c(N2CCOCC2)cnc2c([C@H](C)CNc3cc(-c4ccc(C)nc4)ncn3)cccc12` [Compound 767], for which the Ki is below 30 nM.

In turn, `CNC(=O)c1ccnc2c([C@H](C)CNc3cc(-c4cnc(O)nc4)ncn3)cccc12` [Compound 768] gave an inhibition constant (Ki) below 30 nM.

Consider `CNC(=O)c1ccnc2c([C@H](C)CNc3cc(-c4ccc(C(=O)N5CCN(C)CC5)cc4)ncn3)cccc12` [Compound 770], for which the Ki is below 30 nM.

`CNC(=O)c1ccnc2c([C@H](C)CNc3cc(-c4ccnc(C)c4)ncn3)cccc12` [Compound 771] gave an inhibitory constant (Ki) below 30 nM.

In turn, `CNC(=O)c1c(F)cnc2c([C@H](C)CNc3cc(-c4cncc(C)c4)ncn3)cccc12` [Compound 772] displayed an inhibition constant Ki below 30 nM.

In turn, `CNC(=O)c1ccnc2c([C@H](C)CNc3cc(-c4ccc(C(=O)OC)s4)ncn3)cccc12` [Compound 774] came in with an inhibitory constant (Ki) below 30 nM.

Molecule `CNC(=O)c1ccnc2c([C@H](C)CNc3cc(-c4ccc(C(=O)O)s4)ncn3)cccc12` [Compound 775] yielded an inhibition constant (Ki) below 30 nM.

In the case of `CNC(=O)c1ccc(-c2cc(NC[C@@H](C)c3cccc4c(C(=O)NC)ccnc34)ncn2)s1` [Compound 776], the Ki was below 30 nM.

`CNC(=O)c1ccnc2c([C@H](C)CNc3cc(-c4ccc(C(=O)N(C)C)s4)ncn3)cccc12` [Compound 777] yielded a Ki below 30 nM.

Regarding `CNC(=O)c1ccnc2c([C@H](C)CNc3cc(-c4cnc(C)s4)ncn3)cccc12` [Compound 778], the inhibition constant (Ki) is below 30 nM.

For the molecule `CNC(=O)c1ccnc2c([C@H](C)CNc3cc(-c4cnc(OC)s4)ncn3)cccc12` [Compound 779], the Ki is below 30 nM.

Consider `CNC(=O)c1ccnc2c([C@H](C)CNc3cc(-c4ccc(N5CCN(CC(F)(F)F)CC5)nc4)ncn3)cccc12` [Compound 780], for which the Ki is below 30 nM.

Turning to `CNC(=O)c1c(F)cnc2c([C@H](C)CNc3cc(-c4csc(-n5cccn5)n4)ncn3)cccc12` [Compound 782], the Ki was below 30 nM.

In the case of `CNC(=O)c1c(F)cnc2c([C@H](C)CNc3cc(-c4cnn(C)c4)ncn3)cccc12` [Compound 783], the inhibition constant (Ki) was below 30 nM.

`CNC(=O)c1c(F)cnc2c([C@H](C)CNc3cc(-c4cn[nH]c4)ncn3)cccc12` [Compound 785] showed a Ki below 30 nM.

As for `CNC(=O)c1c(F)cnc2c([C@H](C)CNc3cc(-c4csc(OC)n4)ncn3)cccc12` [Compound 787], the Ki was below 30 nM.

Take `CCc1ccc(-c2cc(NC[C@@H](C)c3cccc4c(C(=O)NC)ccnc34)ncn2)cn1` [Compound 789]: the Ki is below 30 nM.

In turn, `CNC(=O)c1ccnc2c([C@H](C)CNc3cc(-c4cnc(C5CC5)nc4)ncn3)cccc12` [Compound 790] displayed an inhibition constant Ki below 30 nM.

In turn, `CNC(=O)c1ccnc2c([C@H](C)CNc3cc(-c4cnc(C(C)(C)C)nc4)ncn3)cccc12` [Compound 791] came in with an inhibitory constant (Ki) below 30 nM.

`CNC(=O)c1ccnc2c([C@H](C)CNc3cc(-c4cncc(C)c4)ncn3)cccc12` [Compound 792] registered an inhibitory constant (Ki) below 30 nM.

Molecule `CNC(=O)c1ccnc2c([C@H](C)CNc3cc(-c4cnc5c(c4)CCCO5)ncn3)cccc12` [Compound 793] displayed an inhibitory constant (Ki) below 30 nM.

The molecule `CCOC(=O)c1cn2c(n1)CN(c1cc(NC[C@@H](C)c3cccc4c(C(=O)NC)ccnc34)ncn1)CC2` [Compound 794] yielded a Ki below 30 nM.

`CCOC(=O)c1ccc(-c2cc(NC[C@@H](C)c3cccc4c(C(=O)NC)ccnc34)ncn2)o1` [Compound 795]: the Ki is below 30 nM.

Take `CNC(=O)c1ccnc2c([C@H](C)CNc3cc(N4CNC(=O)C4)ncn3)cccc12` [Compound 797]: the Ki was below 30 nM.

`CNC(=O)c1ccnc2c([C@H](C)CNc3cc(-c4ccc(O)nc4)ncn3)cccc12` [Compound 799] came in with a Ki below 30 nM.
